Data taken from ChEMBL document CHEMBL1201862, “PubChem BioAssay data set” (2004).
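Values below derive from 48-hour exposures of cells grown in 96-well plates, with endpoints linearly interpolated between the two concentrations bracketing the appropriate inhibition level. GI50 marks 50% less growth.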 Calls of active or inactive are those of the source. Cut-off read from the data, not from the text of the source: active = GI50 up to about 1.1 µM and inactive = higher.

What was measured:
Assay in all cases: NCI-60 cell line screen, 48 h
IGROV-1 = tested on: IGROV-1
SK-OV-3 = tested on: SK-OV-3
MDA-N = tested on: MDA-N
HCT-116 = tested on: HCT-116
OVCAR-8 = tested on: OVCAR-8
OVCAR-4 = tested on: OVCAR-4
NCI-H522 = tested on: NCI-H522
PC-3 = tested on: PC-3
K562 = tested on: K562
KM12 = tested on: KM12
M14 = tested on: M14
U-251 = tested on: U-251
HOP-62 = tested on: HOP-62
HOP-92 = tested on: HOP-92
NCI-H226 = tested on: NCI-H226
SF-268 = tested on: SF-268
BT-549 = tested on: BT-549
SF-295 = tested on: SF-295
SK-MEL-2 = tested on: SK-MEL-2
UO-31 = tested on: UO-31

Measured: GI50

CC(C)(C)C1CCC2c3c([nH]c4ccccc34)C3C(=O)N(c4ccc([N+](=O)[O-])cc4)C(=O)C3C2C1 (centres undefined)
inactive: IGROV-1 11.5 µM | SK-OV-3 35.1 µM | MDA-N 28.5 µM | HCT-116 8.09 µM | OVCAR-8 19 µM | OVCAR-4 5.62 µM | NCI-H522 12.5 µM | PC-3 26.9 µM | K562 5.96 µM | KM12 1.77 µM | M14 23.9 µM | U-251 15.6 µM | HOP-62 16.4 µM | HOP-92 2.7 µM | NCI-H226 13.9 µM | SF-268 7.36 µM | BT-549 16.2 µM | SF-295 27.2 µM | SK-MEL-2 11.8 µM

C[C@@H]1C[C@@]2(O[C@@H]2C)C(=O)O[C@@H]2CCN3CC=C(COC(=O)[C@]1(C)O)[C@H]23
inactive: IGROV-1 > 100 µM | SK-OV-3 > 100 µM | MDA-N > 100 µM | HCT-116 > 100 µM | OVCAR-8 > 100 µM | OVCAR-4 > 100 µM | NCI-H522 > 100 µM | PC-3 > 100 µM | K562 > 100 µM | KM12 > 100 µM | M14 > 100 µM | UO-31 > 100 µM | U-251 > 100 µM | HOP-92 10.7 µM | NCI-H226 > 100 µM | SF-268 > 100 µM | BT-549 > 100 µM | SF-295 > 100 µM | SK-MEL-2 > 100 µM

NCCC(=O)N[C@@H](Cc1cc(O)c(O)c(SCC(NC(=O)CC[C@H](N)C(=O)O)C(=O)NCC(=O)O)c1)C(=O)O (some centres undefined)
inactive: IGROV-1 > 50 µM | SK-OV-3 > 50 µM | MDA-N > 50 µM | HCT-116 > 50 µM | OVCAR-4 > 50 µM | NCI-H522 > 50 µM | PC-3 > 50 µM | K562 > 50 µM | KM12 > 50 µM | M14 > 50 µM | UO-31 > 50 µM | U-251 > 50 µM | HOP-62 34.4 µM | HOP-92 > 50 µM | NCI-H226 > 50 µM | SF-268 > 50 µM | BT-549 > 50 µM | SF-295 > 50 µM | SK-MEL-2 > 50 µM

C=C(C)[C@@H]1CC[C@]2(COC(C)=O)CC[C@]3(C)[C@H](CC[C@@H]4[C@@]5(C)CC[C@H](OC(C)=O)C(C)(C)[C@@H]5CC[C@]43C)[C@@H]12 [BETULIN DIACETATE]
inactive: IGROV-1 > 50 µM | SK-OV-3 > 50 µM | MDA-N > 50 µM | HCT-116 > 50 µM | OVCAR-8 > 50 µM | OVCAR-4 > 50 µM | NCI-H522 > 50 µM | PC-3 > 50 µM | K562 > 50 µM | M14 > 50 µM | UO-31 > 50 µM | U-251 > 50 µM | HOP-62 > 50 µM | HOP-92 > 31.6 µM | NCI-H226 > 50 µM | BT-549 > 50 µM | SK-MEL-2 > 50 µM
